Assay results: patent publication US6620844B2, “Method for reducing blood insulin levels by reducing in vivo cathepsin L activity” (NewMillennium Pharmaceutical, Inc., priority 2001, dated 2003)
“Also recorded” adds a separate entry of the source.

Key:
[1] = tested on: rat model of human glomerular disease; settings: cited from earlier work
[2] = target: T1, cathepsin B (Mus musculus, UniProt P10605); test: Cysteine protease active site labeling in mouse peritoneal macrophages: cathepsin B; format: cell-based; settings: 10 μM
T1 construct: endogenous in cells; host or cells: thioglycolate-elicited mouse peritoneal macrophages
Description: (§1) FIG. 1. Cysteine protease inhibition profile by synthetic inhibitors in mouse peritoneal macrophages. [^125I]-Z-Tyr-Ala-CHN2-labeled mouse peritoneal macrophages were lysed and separated onto 12% SDS-PAGE to visualize labeled active cathepsins. Doses and inhibitors used were all indicated.
(§2) Mouse peritoneal macrophages were generated by injecting mice with thioglycolate as described in Shi et al. (2000) J. Exp. Med. 191:[…]. After 3-4 days of incubation, peritoneal microphages were washed out using Tris-EDTA buffers containing 6 mM EDTA (pH 8.0). Cells were then seeded onto 24-well plates in DMEM with 10% FBS till complete spread. After cells were attached to the plates, different doses of inhibitors were added. After 2-3 hours of incubation, cells were labeled with [^125I]-Z-Tyr-Ala-CHN2 overnight at 37° C. to detect intracellular active cysteine proteases. Cells were lysed into 1× reducing protein sample buffer and separated onto 12% SDS-PAGE.
(§3) First, the synthetic small molecule compounds were tested for their selectivity toward different forms of cathepsin. Mouse peritoneal macrophages were cultured in the presence of selective inhibitors and cysteine protease active site labeling probe [^125I]-Z-Tyr-Ala-CHN2 (Sukhova et al., supra). […] In contrast, other inhibitors used had no effect on cathepsin B activity. […] Therefore, these inhibitors can be utilized to test if the aforementioned cathepsins play roles in the breakdown of insulin receptor (IR) or IR turnover.

[3] = tested on: mouse 3T3-L1 cells; test: Mouse 3T3-L1 preadipocyte adipogenesis, oil-red staining; format: cell-based; settings: 15 μM
Description: FIG. 9. Effect of cathepsin L inhibitor during mouse 3T3-L1 preadipocyte differentiation. Mouse 3T3-L1 cells were induced for adipogenesis. CLIK 148 (10 μM) was […] at different time points (days) during adipogenesis. Cells were stained with oil-red at the end of differentiation.
Mouse preadipocytes were differentiated as described in Patel and Lane (2000) J. Biol. Chem. 275:17653-17660. In brief, mouse 3T3-L1 cells were cultured in DMEM containing 10% calf serum till confluence at 37° C. with 10% CO2. After additional two days maintenance in the same media, cells were differentiated by adding 0.5 mM methylisobutylxanthine, 1 μM dexmethasone, 1 μg/ml insulin, and 10% FBS for two days in the presence and absence of protease inhibitors. Culture media were replaced with DMEM containing 1 μg/ml insulin and 10% FBS. After day 4 the cells were fed every other day with 10% FBS in DMEM without insulin. By days 7-8, cells were fully differentiated.
Similar phenotypes were observed using mouse preadipocytes 3T3-L1 (ATCC, Manassas, Va.). Both active cathepsins L and S were found in differentiated adipocytes (FIG. 8, days 8-11). However, levels of both enzyme increased after the differentiation, a phenomenon different from that of human preadipoicytes. […] Cathepsin K antigen was detected in preadipocytes but not adipocytes nor insulin treated cells (FIG. 10).

[4] = tested on: insulin like growth factor I receptor (IGF-IR); test: IGF-IR levels in human preadipocytes, Western blot; format: cell-based; settings: 10 μM
Description: FIG. 3. […] Cells were treated as in FIG. 2. Western blot analysis was performed using goat anti-human IGF-1R polyclonal antibodies.
(§4) Human preadipocytes were initially cultured in MSCGM medium (BioWhitaker) at 37° C. and 5% CO2 for 7 to 12 days with 3-4 changes of media till complete confluence. Non-induced cells were kept in adipogenesis maintenance media containing 0.01 mg/ml of insulin, 0.05 units/ml of penicillin, 0.05 μg/ml of streptomycin, and 10% fetal bovine serum. To induce adipogenesis, complete confluent cells were cultured in adipogenesis induction medium containing 1 μM dexamethasone, 0.2 mM indomethacin, 0.01 mg/ml insulin, 0.5 mM 3-isobutyl-1-methyl-xanthine, 0.05 units/ml of penicillin, 0.05 μg/ml of streptomycin, and 10% fetal bovine serum in the presence and absence of protease inhibitors for 3 days followed by three days of culture in maintenance media. After three cycles of induction and maintenance, cells were cultured in maintenance media for additional 7 days with two changes of fresh media.
(§5) After differentiation, cells were collected, and lysed into 1×RIPA buffer. Protein concentrations were determined using Bio-Rad Dc protein assay system according to the manufacturer (Bio-Rad, Hercules, Calif.). Equal amount of proteins were separated on 7% SDS-PAGE for detecting IR and IGF-1R, 12% SDS-PAGE for detecting cathepsins S, K, and L antigens. Both IR and IGF-1R primary polyclonal antibodies were raised from goat and all cathepsin antibodies were polyclonal antibodies raised from rabbit. The corresponding HRP-conjugated secondary antibodies were used for detections.
To test which cathepsin is involved in the IR turnover, human preadipocytes (BioWhittaker, Walkersville, Md.) were induced to become adipocytes in the presence and absence of inhibitors. Differentiated adipocytes expressed more IR than controls as previously reported. Pederson et al. (2000) Biochem. Biophys. Res. Commun. 276:162-168. Cathepsin B inhibitor (CA 074, 10 μM) and catepsin S inhibitor (CLIK 060, 2 μM) had no effect on either IR turnover or differentiation (FIGS. 2). […]

[5] = target: T2, cathepsin K (Mus musculus, UniProt P55097); test: Cysteine protease active site labeling in mouse peritoneal macrophages: cathepsin K; format: cell-based; settings: 10 μM
T2 construct: endogenous in cells; host or cells: thioglycolate-elicited mouse peritoneal macrophages
T2 sequence (P55097 115-329): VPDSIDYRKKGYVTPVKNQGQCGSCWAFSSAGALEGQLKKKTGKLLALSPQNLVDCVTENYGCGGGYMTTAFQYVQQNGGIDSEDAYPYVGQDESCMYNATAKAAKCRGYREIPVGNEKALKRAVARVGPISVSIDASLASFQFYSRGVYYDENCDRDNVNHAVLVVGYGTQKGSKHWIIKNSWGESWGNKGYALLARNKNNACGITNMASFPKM
Description: as §1, §2, §3

[6] = tested on: peroxisome proliferator-activated receptor-γ (PPAR-γ); test: PPAR-γ levels in human preadipocytes, Western blot; format: cell-based; settings: human preadipocytes differentiated with inhibitor, FIG. 5
Description: FIG. 5. Inhibition of cathepsin L blocked the expression of PPAR-γ. Human preadipocytes were used and Western blot analysis was performed as in FIG. 4 instead of using mouse anti-human PPAR-γ monoclonal antibodies as the primary antibodies.
as §4
(§6) To evaluate the cell differentiation levels affected by aforementioned inhibitors, the levels of transcription factors CCAAT/enhancer-binding protein-α (C/EBP-α) as well as peroxisome proliferator-activated receptor-γ (PPAR-γ) from cells treated with and without inhibitors were measured. Both C/EBP-α and PPAR-γ are important adipocyte determination factors. Wu et al. (1999) Mol. Cell. 3:151-158; Tanaka et al. (1997) EMBO J. 16:7432-7443; and Tontonoz et al. (1994) Cell 79:1147-1156.

[7] = tested on: insulin receptor β subunit; test: Insulin receptor turnover in human preadipocytes, Western blot; format: cell-based; settings: 10 μM, human preadipocytes
Description: FIG. 2. […] Human preadipocytes were incubated with and without inhibitors indicated at different doses, lysed, separated onto 7% SDS-PAGE, and probed with goat anti-human insulin receptor β-subunit polyclonal antibodies. Both mature β subunit and its precursor were indicated.
as §4, §5
To test which cathepsin is involved in the IR turnover, human preadipocytes (BioWhittaker, Walkersville, Md.) were induced to become adipocytes in the presence and absence of inhibitors. Differentiated adipocytes expressed more IR than controls as previously reported. Pederson et al. (2000) Biochem. Biophys. Res. Commun. 276:162-168. Cathepsin B inhibitor (CA 074, 10 μM) and catepsin S inhibitor (CLIK 060, 2 μM) had no effect on either IR turnover or differentiation (FIGS. 2). […] The same is true when the blot was tested with insulin like growth factor I receptor (IGF-IR) antibodies (FIG. 3).

[8] = target: T3, cathepsin L (Mus musculus, UniProt P06797); test: Cysteine protease active site labeling in mouse peritoneal macrophages: cathepsin L; format: cell-based; settings: 10 μM, mouse peritoneal macrophages
T3 construct: endogenous in cells; host or cells: thioglycolate-elicited mouse peritoneal macrophages
Description: as §1, §2, §3

[9] = tested on: CCAAT/enhancer-binding protein-α (C/EBP-α); test: C/EBP-α levels in human preadipocytes, Western blot; format: cell-based; settings: human preadipocytes differentiated with inhibitor, FIG. 4
Description: FIG. 4. Inhibition of cathepsin L blocked the expression of CCAAT/enhancer-binding protein. Human preadipocytes were differentiated as in FIG. 2. A 10% gel was used to perform Western blot analysis using goat anti-human C/EBP-α polyclonal antibodies and the blot was detected using the corresponding HRP-conjugated secondary antibodies.
as §4, §6

[10] = tested on: human preadipocytes; test: Human preadipocyte adipogenesis, oil-red staining; format: cell-based; settings: 10 μM, human preadipocytes
Description: FIG. 6. Oil-red staining of human preadipocytes and adipocytes.
as §4
This hypothesis is further confirmed by oil-red staining of CLIK 148 or 195 treated preadipocytes (FIG. 6). In addition, inhibition of adiogenesis by these two inhibitors is dose dependent. Less than 50% of adipogenesis was blocked by 1 μM of such inhibitors. […] In contrast, 1 μM of CLIK 060, 1 or 10 μM of CA 074 had no effect on adipogenesis (data not shown). Therefore, these observations indicate that cathepsin L appears to play a more critical role than cathepsins S and K in adipogenesis by controlling insulin/IR complex turnover.

T3 sequence (P06797 114-334): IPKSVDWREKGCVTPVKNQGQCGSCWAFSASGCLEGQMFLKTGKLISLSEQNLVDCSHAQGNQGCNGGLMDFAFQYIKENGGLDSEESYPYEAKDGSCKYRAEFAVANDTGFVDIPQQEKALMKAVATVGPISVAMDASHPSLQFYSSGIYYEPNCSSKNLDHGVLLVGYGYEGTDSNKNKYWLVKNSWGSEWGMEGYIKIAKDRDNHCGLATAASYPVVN
T1 sequence (P10605 80-333 limits assumed): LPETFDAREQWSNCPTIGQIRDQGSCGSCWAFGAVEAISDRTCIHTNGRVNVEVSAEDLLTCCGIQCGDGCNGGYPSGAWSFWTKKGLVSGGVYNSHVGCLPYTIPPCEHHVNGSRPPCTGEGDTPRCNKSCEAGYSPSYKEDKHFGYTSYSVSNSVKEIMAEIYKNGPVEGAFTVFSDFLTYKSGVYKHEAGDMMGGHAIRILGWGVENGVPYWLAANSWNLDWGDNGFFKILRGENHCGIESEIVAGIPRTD

CC(C)CCNC(=O)[C@H](CC(C)C)NC(=O)[C@H]1O[C@@H]1C(=O)O (relative stereo) [trans-epoxysuccinyl-L-leucylamido-(3-methyl)butane]
proteinuria [1]: significantly reduced

CN(C)C(=O)[C@H](Cc1ccccc1)NC(=O)[C@H]1O[C@@H]1C(=O)NCCc1ccccn1 (relative stereo) [CLIK 148, L-(+)-(2S, 3S)-N-[2-(2′-pyridinyl)-1-ethyl]-Na-amino-(L-phenylalaninedimethylamide)-trans-epoxysuccinamide]
cathepsin B activity (active site labeling) [2]: not
inhibition of adipogenesis in 3T3-L1 cells [3]: inhibition of adipogenesis
levels of IGF-IR β subunit and its precursor (the same as for IR) [4]: increased levels
cathepsin K activity (active site labeling) [5]: not
accumulation of 50 kDa PPAR-γ [6]: blocking the accumulation
levels of 95 kDa IR β subunit and its precursor [7]: increased levels
cathepsin L activity (active site labeling) [8]: completely inhibited
accumulation of 50 kDa C/EBP-α [9]: blocking the accumulation
inhibition of adipogenesis / differentiation [10]: complete inhibition; also recorded: completely blocked
